The text below walks through data of patent US6420172B1, “Method for inducing tumor immunity” (TIB Company, LLC, priority 1992, dated 2002).

In one assay the test system is tumor cells. Particulars: literature reports; cited from earlier work.
The next assay has as its system transfected C6 cells. The assay is described as follows: 3H-thymidine incorporation into transfected C6 cells in serum-free medium. In kind it is cell-based, rat. Particulars: 48 hours, 50 μg/ml. An excerpt: The mechanism underlying the loss of tumorigenicity for the antisense IGF-1 transfectants is linked to enhanced immunogenicity. Applicant notes a striking infiltration of mononuclear cells surrounding the injected C6 transfected cells in vivo. No such infiltrates ere apparent for the parental (IGF-I positive) cells in he tumors formed in vivo. […] This possibility is substantiated by the examples provided below. This immunological component may exist together with an antiproliferative effect. C6 cellular proliferation is likely to involve factors in addition to IGF-1, however, since the rate of incorporation of ^3H-thymidine into transfected C6 cells cultured for 48 hours in serum-free medium was unaffected by the presence of ZnSO^4 or IGF-I protein (50 μg/ml) in the culture medium (data not shown).

Consider `C[C@@H](O)[C@@H]1NC(=O)[C@H](CCCCN)NC(=O)[C@@H](Cc2c[nH]c3ccccc23)NC(=O)[C@H](Cc2ccccc2)NC(=O)[C@@H](NC(=O)[C@H](N)Cc2ccccc2)CSSC[C@@H](C(=O)N[C@H](CO)[C@@H](C)O)NC1=O` [octreotide], for which the “tumor development in vivo” value in the assay with tumor cells is “not blocked”.

“IGF-I protein: Insulin-like growth factor I protein added to the culture medium”: the “rate of incorporation of 3H-thymidine in the presence of IGF-I protein” value in the assay on transfected C6 cells is listed as “unaffected”.
